From patent US12077503B2, “Substituted cyclic amides and their use as herbicides” (FMC CORPORATION, priority 2015, dated 2024)

What was measured:
Type in all cases: in vivo
[1] = tested on: giant foxtail (Setaria faberi); test: Test G Post-Emergence Protocol; details: Setaria faberi, post-emergence, 312 h, read-out: Foxtail, Giant damage rating; for pest or weed control at 15.625 g/ha: 15.625 g ai/ha, evaluated after 13 days (100=total damage to plant; 0=no damage to plant); for pest or weed control at 62.5 g/ha: 62.5 g ai/ha; for pest or weed control at 62.5 g/ha / pest or weed control at 250 g/ha: evaluated after 13 days, 100=total damage to plant, 0=no damage to plant; for pest or weed control at 250 g/ha: 250 g ai/ha
Summary of the method: (§1)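 Scores run 0 (no damage) to 100 (total damage) and were taken 13 days after spraying. Plants had been raised in pots for 8 days under glasshouse control (24/16 °C, 14 h photoperiod, 65% humidity) and then treated at 15.625, 62.5 or 250 g/ha.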

[2] = tested on: redroot pigweed (Amaranthus retroflexus); test: Test G Post-Emergence Protocol; details: Amaranthus retroflexus, post-emergence, 312 h, read-out: Pigweed, Redroot damage rating; for pest or weed control at 15.625 g/ha: 15.625 g ai/ha, evaluated after 13 days (100=total damage to plant; 0=no damage to plant); for pest or weed control at 62.5 g/ha: 62.5 g ai/ha; for pest or weed control at 62.5 g/ha / pest or weed control at 250 g/ha: evaluated after 13 days, 100=total damage to plant, 0=no damage to plant; for pest or weed control at 250 g/ha: 250 g ai/ha
Summary of the method: as §1

[3] = tested on: velvetleaf (Abutilon theophrasti); test: Test G Post-Emergence Protocol; details: Abutilon theophrasti, post-emergence, 312 h, read-out: Velvetleaf damage rating; for pest or weed control at 15.625 g/ha: 15.625 g ai/ha, evaluated after 13 days (100=total damage to plant; 0=no damage to plant); for pest or weed control at 62.5 g/ha: 62.5 g ai/ha; for pest or weed control at 62.5 g/ha / pest or weed control at 250 g/ha: evaluated after 13 days, 100=total damage to plant, 0=no damage to plant; for pest or weed control at 250 g/ha: 250 g ai/ha
Summary of the method: as §1

corn (Zea mays) [4] = test: Test G Post-Emergence Protocol; details: Zea mays, post-emergence, 312 h, read-out: Corn damage rating; for plant injury at 15.625 g/ha: 15.625 g ai/ha, evaluated after 13 days (100=total damage to plant; 0=no damage to plant); for plant injury at 62.5 g/ha: 62.5 g ai/ha; for plant injury at 62.5 g/ha / plant injury at 250 g/ha: evaluated after 13 days, 100=total damage to plant, 0=no damage to plant; for plant injury at 250 g/ha: 250 g ai/ha
Summary of the method: as §1

[5] = tested on: ivy-leaved morning glory (Ipomoea hederacea); test: Test G Post-Emergence Protocol; details: Ipomoea, post-emergence, 312 h, read-out: Morningglory, Ivy-leaved damage rating; for pest or weed control at 15.625 g/ha: 15.625 g ai/ha, evaluated after 13 days (100=total damage to plant; 0=no damage to plant); for pest or weed control at 62.5 g/ha: 62.5 g ai/ha; for pest or weed control at 62.5 g/ha / pest or weed control at 250 g/ha: evaluated after 13 days, 100=total damage to plant, 0=no damage to plant; for pest or weed control at 250 g/ha: 250 g ai/ha
Summary of the method: as §1

[6] = tested on: barnyardgrass (Echinochloa crus-galli); test: Test G Post-Emergence Protocol; details: Echinochloa crus-galli, post-emergence, 312 h, read-out: Barnyardgrass damage rating; for pest or weed control at 15.625 g/ha: 15.625 g ai/ha, evaluated after 13 days (100=total damage to plant; 0=no damage to plant); for pest or weed control at 62.5 g/ha: 62.5 g ai/ha; for pest or weed control at 62.5 g/ha / pest or weed control at 250 g/ha: evaluated after 13 days, 100=total damage to plant, 0=no damage to plant; for pest or weed control at 250 g/ha: 250 g ai/ha
Summary of the method: as §1

[7] = tested on: giant foxtail (Setaria faberi); test: Test G Pre-Emergence Protocol; details: Setaria faberi, pre-emergence, 312 h, evaluated after 13 days; for pest or weed control at 15.625 g/ha: 15.625 g ai/ha; for pest or weed control at 15.625 g/ha / pest or weed control at 250 g/ha: read-out: Foxtail, Giant damage rating (100=total damage to plant; 0=no damage to plant); for pest or weed control at 62.5 g/ha: 62.5 g ai/ha, 100=total damage to plant, 0=no damage to plant, read-out: Foxtail, Giant damage rating; for pest or weed control at 250 g/ha: 250 g ai/ha
Summary of the method: (§2)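 Herbicidal effect was rated 13 days post-application on a scale where 100 equals total damage. Spraying took place the day after sowing, using 15.625, 62.5 or 250 g/ha of compound in a 50:50 acetone/water solution with 0.5% Tween 20.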

[8] = tested on: redroot pigweed (Amaranthus retroflexus); test: Test G Pre-Emergence Protocol; details: Amaranthus retroflexus, pre-emergence, 312 h, evaluated after 13 days; for pest or weed control at 15.625 g/ha: 15.625 g ai/ha; for pest or weed control at 15.625 g/ha / pest or weed control at 250 g/ha: read-out: Pigweed, Redroot damage rating (100=total damage to plant; 0=no damage to plant); for pest or weed control at 62.5 g/ha: 62.5 g ai/ha, 100=total damage to plant, 0=no damage to plant, read-out: Pigweed, Redroot damage rating; for pest or weed control at 250 g/ha: 250 g ai/ha
Summary of the method: as §2

[9] = tested on: velvetleaf (Abutilon theophrasti); test: Test G Pre-Emergence Protocol; details: Abutilon theophrasti, pre-emergence, 312 h, evaluated after 13 days; for pest or weed control at 15.625 g/ha: 15.625 g ai/ha; for pest or weed control at 15.625 g/ha / pest or weed control at 250 g/ha: read-out: Velvetleaf damage rating (100=total damage to plant; 0=no damage to plant); for pest or weed control at 62.5 g/ha: 62.5 g ai/ha, 100=total damage to plant, 0=no damage to plant, read-out: Velvetleaf damage rating; for pest or weed control at 250 g/ha: 250 g ai/ha
Summary of the method: as §2

corn (Zea mays) [10] = test: Test G Pre-Emergence Protocol; details: Zea mays, pre-emergence, 312 h, evaluated after 13 days; for plant injury at 15.625 g/ha: 15.625 g ai/ha; for plant injury at 15.625 g/ha / plant injury at 250 g/ha: read-out: Corn damage rating (100=total damage to plant; 0=no damage to plant); for plant injury at 62.5 g/ha: 62.5 g ai/ha, 100=total damage to plant, 0=no damage to plant, read-out: Corn damage rating; for plant injury at 250 g/ha: 250 g ai/ha
Summary of the method: as §2

[11] = tested on: ivy-leaved morning glory (Ipomoea hederacea); test: Test G Pre-Emergence Protocol; details: Ipomoea, pre-emergence, 312 h, evaluated after 13 days; for pest or weed control at 15.625 g/ha: 15.625 g ai/ha; for pest or weed control at 15.625 g/ha / pest or weed control at 250 g/ha: read-out: Morningglory, Ivy-leaved damage rating (100=total damage to plant; 0=no damage to plant); for pest or weed control at 62.5 g/ha: 62.5 g ai/ha, 100=total damage to plant, 0=no damage to plant, read-out: Morningglory, Ivy-leaved damage rating; for pest or weed control at 250 g/ha: 250 g ai/ha
Summary of the method: as §2

[12] = tested on: barnyardgrass (Echinochloa crus-galli); test: Test G Pre-Emergence Protocol; details: Echinochloa crus-galli, pre-emergence, 312 h, evaluated after 13 days; for pest or weed control at 15.625 g/ha: 15.625 g ai/ha; for pest or weed control at 15.625 g/ha / pest or weed control at 250 g/ha: read-out: Barnyardgrass damage rating (100=total damage to plant; 0=no damage to plant); for pest or weed control at 62.5 g/ha: 62.5 g ai/ha, 100=total damage to plant, 0=no damage to plant, read-out: Barnyardgrass damage rating; for pest or weed control at 250 g/ha: 250 g ai/ha
Summary of the method: as §2

SMILES | pest or weed control at 15.625 g/ha [1] [%] | pest or weed control at 62.5 g/ha [1] [%] | pest or weed control at 250 g/ha [1] [%] | pest or weed control at 15.625 g/ha [2] [%] | pest or weed control at 62.5 g/ha [2] [%] | pest or weed control at 250 g/ha [2] [%] | pest or weed control at 15.625 g/ha [3] [%] | pest or weed control at 62.5 g/ha [3] [%] | pest or weed control at 250 g/ha [3] [%] | plant injury at 15.625 g/ha (corn (Zea mays) [4]) [%] | plant injury at 62.5 g/ha (corn (Zea mays) [4]) [%] | plant injury at 250 g/ha (corn (Zea mays) [4]) [%] | pest or weed control at 15.625 g/ha [5] [%] | pest or weed control at 62.5 g/ha [5] [%] | pest or weed control at 250 g/ha [5] [%] | pest or weed control at 15.625 g/ha [6] [%] | pest or weed control at 62.5 g/ha [6] [%] | pest or weed control at 250 g/ha [6] [%] | pest or weed control at 15.625 g/ha [7] [%] | pest or weed control at 62.5 g/ha [7] [%] | also measured
CN1C[C@H](c2cccc(C(F)(F)F)c2)[C@@H](C(=O)Nc2cccnc2F)C1=O (racemic) [Compound 1809] | 80 | 80 | 80 | 20 | 20 | 50 | 0 | 0 | 40 | 80 | 80 | 80 | 20 | 70 | 70 | 80 | 80 | 80 | 90 | 90 | pest or weed control at 250 g/ha [7]: 90%; pest or weed control at 15.625 g/ha [8]: 0%; pest or weed control at 62.5 g/ha [8]: 0%; pest or weed control at 250 g/ha [8]: 60%; pest or weed control at 15.625 g/ha [9]: 0%; pest or weed control at 62.5 g/ha [9]: 0%; pest or weed control at 250 g/ha [9]: 50%; plant injury at 15.625 g/ha (corn (Zea mays) [10]): 60%; plant injury at 62.5 g/ha (corn (Zea mays) [10]): 80%; plant injury at 250 g/ha (corn (Zea mays) [10]): 90%; pest or weed control at 15.625 g/ha [11]: 10%; pest or weed control at 62.5 g/ha [11]: 70%; pest or weed control at 250 g/ha [11]: 80%; pest or weed control at 15.625 g/ha [12]: 90%; pest or weed control at 62.5 g/ha [12]: 80%; pest or weed control at 250 g/ha [12]: 90%
Cc1c(F)cccc1NC(=O)[C@@H]1C(=O)N(C)C[C@H]1c1ccc2nonc2c1 (racemic) [Compound 1818] | 40 | 80 | 80 | 0 | 0 | 0 | 0 | 0 | 30 | 0 | 30 | 60 | 0 | 10 | 40 | 0 | 30 | 80 | 70 | 90 | pest or weed control at 250 g/ha [7]: 90%; pest or weed control at 15.625 g/ha [8]: 0%; pest or weed control at 62.5 g/ha [8]: 0%; pest or weed control at 250 g/ha [8]: 40%; pest or weed control at 15.625 g/ha [9]: 0%; pest or weed control at 62.5 g/ha [9]: 30%; pest or weed control at 250 g/ha [9]: 70%; plant injury at 15.625 g/ha (corn (Zea mays) [10]): 0%; plant injury at 62.5 g/ha (corn (Zea mays) [10]): 0%; plant injury at 250 g/ha (corn (Zea mays) [10]): 70%; pest or weed control at 15.625 g/ha [11]: 0%; pest or weed control at 62.5 g/ha [11]: 10%; pest or weed control at 250 g/ha [11]: 40%; pest or weed control at 15.625 g/ha [12]: 30%; pest or weed control at 62.5 g/ha [12]: 30%; pest or weed control at 250 g/ha [12]: 90%
